# Source: US5057427A, “Method for resolution of stereoisomers” (Sepracor, Inc., priority 1988, dated 1991)
# Structures can show the parent of a compound that is named as a salt.
# Experiments:
# [1] = molecular target: T1, Protease VIII: "Subtilopeptidase A" (subtilisin Carlsberg) (Enzyme B) (Bacillus licheniformis, UniProt P00780); test: Homogeneous aqueous enzymatic resolution (ester hydrolysis) with Enzyme B; type: biochemical; details: for % e.e.: acid product
# T1 sequence (P00780 106-379): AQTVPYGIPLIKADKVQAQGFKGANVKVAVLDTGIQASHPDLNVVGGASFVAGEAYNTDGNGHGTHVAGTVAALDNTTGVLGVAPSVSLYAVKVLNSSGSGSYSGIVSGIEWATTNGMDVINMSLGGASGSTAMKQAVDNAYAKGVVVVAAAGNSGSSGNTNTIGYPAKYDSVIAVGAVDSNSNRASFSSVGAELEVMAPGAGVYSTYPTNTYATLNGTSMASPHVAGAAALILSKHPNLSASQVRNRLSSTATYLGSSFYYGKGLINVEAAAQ
# [2] = tested on: Protease XXIII: from Aspergillus oryzae (Enzyme A); test: Homogeneous aqueous enzymatic resolution (ester hydrolysis) with Enzyme A; details: for % e.e.: acid product
# Method: 10.0 millimole (mmol) of ibuprofen substrate ester 1 (the methyl sulfonate derivative) was dissolved in 100 ml of 0.2 M phosphate buffer of the appropriate cation (sodium or potassium, to be the same as the substrate counterion) at pH 7.0. 100 mg of enzyme A, as the
# commercial preparation, was added directly to this solution, and the reaction mixture was capped and then shaken briefly until all the enzyme preparation had dispersed or dissolved. The reaction mixture was then allowed to stand at ambient temperature (20°-22° C.) for 20 hours. […] The combined organic layers were backwashed twice with one volume of water, once with one volume of saturated NaCl solution, and then dried over MgSO4.
# Evaporation of the ether under reduced pressure left the resolved ibuprofen acid product; no other purification was performed. The optical rotation was measured in EtOH at a concentration c=1.0 for the ibuprofen acid product.
# In this Example, 0.010 mol of ibuprofen ester 3 (the propyl sulfonate derivative) was dissolved in 100 ml 0.2 M sodium phosphate buffer at pH 7.8, and 150 mg of the commercial enzyme A preparation was added. The reaction was then handled as described for Examples 6.2.1.1-6.2.1.7.
# In this Example, 0.010 mol of ibuprofen ester 2 (the ethyl sulfonate ester in the form of its potassium salt) were dissolved in 125 ml of 0.2 M sodium phosphate buffer at pH 7.0, and 150 mg of enzyme A was added to the reaction mixture as the commercially supplied preparation. The reaction was allowed to proceed for 18 hours, and the resulting product mixture was then worked-up as described above for Examples 6.2.1.1-6.2.1.7.
# 150 mg of Protease XXIII (A), as the commercially available preparation, was added to the reaction mixture, the reaction vessel was capped, and the entire heterogeneous reaction mixture was shaken in a wrist-action shaker for 18 hours. […] This mixture was then extracted twice with 200 ml of diethyl ether. The combined organic layers were backwashed twice with one volume of water, once with one volume of saturated NaCl, and the organic phase was then dried over MgSO4. Evaporation of the ether under reduced pressure left the resolved naproxen acid. No further purification was performed. The optical rotation of the product was measured in CHCl3 at a concentration c=1.0.
# 0.010 mol of naproxen ester 8 (the potassium salt of the ethyl sulfonate ester) was dispersed in 125 ml of 0.2 M sodium phosphate buffer at pH 7.8. 150 mg of enzyme A, as the commercially available preparation, were added, and the reaction handled as described in Example 6.2.1.1.
# 0.010 mol of ibuprofen ester 6 (the compound) were dissolved in 100 ml of 0.2 M sodium phosphate buffer at pH 7.0. 100 mg of enzyme A was added as the commercially available preparation, and the reaction handled as described above in Examples 6.2.1.1-6.2.1.7.
# 2.0 gm (0.0058 mole) of naproxen ester 9 (the sulfomethyl compound) was dissolved in 400 ml of 50 mM sodium phosphate buffer at pH 7.5. To the reaction were added 100 mg of Protease XXIII (A) as the commercially available preparation. After the enzyme had dissolved, the reaction mixture was incubated at 25 degrees for 16 hours. The reaction mixture was then acidified to pH 1-2 by the careful dropwise addition of concentrated HCl, and then it was extracted with ether (3×150 ml). The aqueous layer was retained. The combined organic layers were backwashed with water (2×100 ml), and these aqueous washings were added to the previously retained aqueous layer of the reaction. The ether layer was then washed once with 100 ml of brine, and dried over MgSO4.
# Pig Liver Esterase (E) = test: Homogeneous aqueous enzymatic resolution (ester hydrolysis) with Enzyme E; type: biochemical; details: 30 mg Pig Liver Esterase (E), 0.010 mol ester in 100 ml 0.2 M sodium phosphate buffer pH 7.8
# [3] = molecular target: T2, Protease XXVII: "Nagarse" (Enzyme D) (Bacillus amyloliquefaciens, UniProt P00782); test: Homogeneous aqueous enzymatic resolution (ester hydrolysis) with Enzyme D; type: biochemical; details: 150 mg enzyme D, 0.010 mol ester in 100 ml 0.2 M sodium phosphate buffer pH 7.8
# T2 sequence (P00782 108-382): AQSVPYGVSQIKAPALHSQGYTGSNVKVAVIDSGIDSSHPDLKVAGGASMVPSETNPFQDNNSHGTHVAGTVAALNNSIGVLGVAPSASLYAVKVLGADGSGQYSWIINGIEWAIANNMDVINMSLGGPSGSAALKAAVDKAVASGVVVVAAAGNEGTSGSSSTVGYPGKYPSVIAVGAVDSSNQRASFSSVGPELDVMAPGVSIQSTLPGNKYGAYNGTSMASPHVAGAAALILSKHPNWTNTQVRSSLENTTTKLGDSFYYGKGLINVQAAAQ
# [4] = molecular target: T3, Protease XVI: from Bacillus subtilis (Enzyme C) (Bacillus subtilis, UniProt P04189); test: Homogeneous aqueous enzymatic resolution (ester hydrolysis) with Enzyme C; type: biochemical; details: acid product; 100 mg enzyme C, 10 mmol ester in 100 ml 0.2 M phosphate buffer pH 7.0, 20-22° C., 20 hours
# T3 sequence (P04189 107-381): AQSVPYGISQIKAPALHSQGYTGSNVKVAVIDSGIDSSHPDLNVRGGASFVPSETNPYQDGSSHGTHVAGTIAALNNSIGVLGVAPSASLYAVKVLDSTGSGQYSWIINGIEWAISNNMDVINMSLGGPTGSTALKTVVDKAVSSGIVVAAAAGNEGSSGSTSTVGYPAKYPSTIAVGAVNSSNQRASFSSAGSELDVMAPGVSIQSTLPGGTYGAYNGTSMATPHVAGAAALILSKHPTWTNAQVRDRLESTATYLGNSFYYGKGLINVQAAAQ
# [5] = tested on: protease Prozyme 6 (Enzyme F); test: Homogeneous aqueous enzymatic resolution (ester hydrolysis) with Enzyme F; type: biochemical, Asperqillus oryzae; details: 100 mg Prozyme 6 (F), 10 mmol ester in 100 ml 0.2 M buffer pH 7.0, 25° C., 18 hours
# Method: (Prozyme 6) (F) added. The enzymatic reaction mixtures were capped and briefly shaken until all the substrate had dissolved, and the enzyme had completely dissolved or dispersed. […] Evaporation of the ether left a white solid. Rotations were measured at c=1 in CHCl3.
# The enzymatic reaction mixtures were capped and briefly shaken until all the substrate had dissolved, and the enzyme had completely dissolved or dispersed. […] Evaporation of the ether left a white solid. Rotations were measured at c=1 in CHCl3.
# The reaction was started by adding 100 mg of the protease (F) from the fungus Asperqillus oryzae (from Amano Enzyme Corporation, Prozyme 6, 60,000 units per mg of solid).
# After 20 hours at room temperature, the solution was acidified to pH 2 and extracted with 3 volumes of diethyl ether. The aqueous phase was saved for subsequent workup. The ether phase was washed with two volumes of distilled water and then one volume of saturated sodium chloride, and then it was dried over MgSO4 and subsequently evaporated to dryness. The resolved ibuprofen product recovered was 930 mg of white powder, indicating 45% conversion of racemic ester to acid. The optical rotation was -0.580° (measured at c=1 in ethanol), indicating the R isomer of ibuprofen.
# 35 mg of protease Enzyme F, as the commercial preparation Prozyme 6, were added to the aqueous solution. The reaction flask was capped, and briefly shaken until all the enzyme had dissolved or dispersed. […] The resulting mixture was diluted with one volume of water and was extracted with diethyl ether (2 times 200 ml). The ether layers were combined and backwashed with water (2 times 200 ml), saturated NaCl solution (200 ml), and then dried over MgSO4.
# In this control run, a 0.5 M ester solution of (1) was prepared in 325 ml of 0.1 M sodium phosphate buffer (pH 7.0). The reaction was started by adding 3 gm of the above enzyme (F). The pH was controlled at 7.0 with 8.22 M sodium hydroxide. After 6.49 hours at 30° C., 6.63 ml of hydroxide were added, indicating 37.7% conversion. […]
# [6] = cited from earlier work
# [7] = 100 mg enzyme B, 10.0 mmol ester in 100 ml 0.2 M Na3 PO4 buffer pH 7.0, 25° C., 18 hours
# [8] = 100 mg enzyme A, 10.0 mmol ester in 100 ml 0.2 M buffer pH 7.0, 25° C., 18 hours
# [9] = 100 mg enzyme A, 10 mmol ester in 100 ml 0.2 M phosphate buffer pH 7.0, 20-22° C., 20 hours
# [10] = 150 mg enzyme B, 0.010 mol ester in 100 ml 0.2 M sodium phosphate buffer pH 7.8
# [11] = 150 mg enzyme A, 0.010 mol ester in 100 ml 0.2 M sodium phosphate buffer pH 7.8
# [12] = 100 mg enzyme B, 10 mmol ester in 100 ml 0.2 M phosphate buffer pH 7.0, 20-22° C., 20 hours
# [13] = 100 mg Protease XXIII (A), pH 7.5, 25 degrees, 16 hours
smiles,measurement,setting,value
"CC(CSC(=O)c1ccccc1)C(=O)OCS(=O)(=O)O (racemic) [Compound 16, Potassium Salt of the Sulfomethyl Ester of (+)-S-3-Benzoylthio-2-methylpropanoic Acid]",% CONVERSION,[1]; [7],26%
same,% e.e.,[1]; [7],10%
same,% CONVERSION,[2]; [8],53%
same,% e.e.,[2]; [8],3%
"CC(C)Cc1ccc(C(C)C(=O)OCCS(=O)(=O)O)cc1 (centres unmarked) [Compound 2, Sodium Salt of 2-Sulfoethyl Ester of 2-(4-Isobutylphenyl)propanoic Acid]",% CONVERSION,[2]; [9],22.3%
same,% e.e.,[2]; [9],93.3%
"CC(C)Cc1ccc(C(C)C(=O)OCCCS(=O)(=O)O)cc1 (centres unmarked) [Compound 3, Potassium Salt of 3-Sulfopropyl Ester of 2-(4-Isobutylphenyl)propanoic Acid]",% CONVERSION,[1]; [10],36.4%
same,% e.e.,[1]; [10],98.6%
same,% CONVERSION,Pig Liver Esterase (E),12.1%
same,% e.e.,Pig Liver Esterase (E); acid product,88.0%
same,% CONVERSION,[3],32.0%
same,% e.e.,[3]; acid product,91.0%
same,% CONVERSION,[2]; [9],50.0%
same,% CONVERSION,[2]; [11],47.1%
same,conversion of the racemic ester to acid,"[2]; 1.00 gm protease (A), about 1 M ester, 40 ml, pH 7.0, room temperature, 23.9 hours, by NaOH titration",29%
same,% e.e.,[2]; [9],84.2%
same,% e.e.,[2]; [11],97.7%
"CC(C)Cc1ccc(C(C)C(=O)OCCCCS(=O)(=O)O)cc1 (centres unmarked) [Compound 4, Potassium Salt of 4-Sulfobutyl Ester of 2-(4-Isobutylphenyl)propanoic Acid]",% CONVERSION,[1]; [12],20.0%
same,% e.e.,[1]; [12],92.1%
same,% e.e.,[4],61.7%
same,% CONVERSION,[2]; [9],43.2%
same,% e.e.,[2]; [9],97.4%
"CC(C)Cc1ccc(C(C)C(=O)OCCOP(=O)(O)O)cc1 (centres unmarked) [Compound 5, Disodium Salt of the Phosphoric Acid Ester of the 2-Hydroxyethyl Ester of 2-(4-Isobutylphenyl)propanoic Acid]",% e.e.,[4],75.6%
"CC(C)Cc1ccc(C(C)C(=O)OCCCOS(=O)(=O)O)cc1 (centres unmarked) [Compound 6, Potassium Salt of the Sulfuric Acid Ester of 3-Hydroxypropyl Ester of 2-(4-Isobutylphenyl)propanoic Acid]",% CONVERSION,[2]; [9],24.3%
same,% e.e.,[2]; [9],96.5%
"COc1ccc2cc(C(C)C(=O)OCS(=O)(=O)O)ccc2c1 (centres unmarked) [Compound 9, Sodium Salt of Sulfomethyl Ester of 2-(6-Methoxy-2-naphthyl)propanoic Acid]",conversion (enzymatic hydrolysis),"[2]; 100 mg Protease XXIII (A), 2.0 gm ester in 400 ml 50 mM sodium phosphate buffer pH 7.5, 25 degrees, 16 hours",18%
same,enantiomeric excess of R isomer (acid product),[2]; [13],61.2%
same,enantiomeric excess of S isomer (acid from remaining ester after hydrolysis at pH 12),[2]; [13],45.5%
"CC(C)Cc1ccc(C(C)C(=O)OCC[N+](C)(C)C)cc1 (centres unmarked) [Compound 10, Iodide Salt of 2-(N,N,N-Trimethylammonium)ethyl Ester of 2-(4-Isobutylphenyl)propanoic Acid]",% CONVERSION,[2]; [9],30.1%
same,% e.e.,[2]; [9],> 99%
"COc1ccc2cc(C(C)C(=O)OCC[N+](C)(C)C)ccc2c1 (centres unmarked) [Compound 11, Methyl Sulfate Salt of 2-(N,N,N-Trimethylammonium)ethyl Ester of 2-(6-Methoxy-2-naphthyl)propanoic Acid]",% e.e.,[5]; acid product,34.0%
"COc1ccc2cc(C(C)C(=O)OCCC[N+](C)(C)C)ccc2c1 (centres unmarked) [Compound 12, Methyl Sulfate Salt of 3-(N,N,N-Trimethylammonium)propyl Ester of 2-(6-Methoxy-2-naphthyl)propanoic Acid]",% CONVERSION,[5],34.0%
"CC(Cl)C(=O)OCCCS(=O)(=O)O (centres unmarked) [Compound 13, Potassium Salt of 3-Sulfopropyl Ester of 2-Chloropropanoic Acid]",conversion as measured by titrimetry (reaction stopped),"[1]; 20 mg subtilisin protease (B), 8.05 gm ester in 300 ml 0.1 M potassium phosphate buffer pH 7.0",25%
"O=C1CCC(N2C(=O)c3ccccc3C2=O)C(=O)N1 [D-enantiomer of thalidomide, thalidomide]",sedative use,[6]; prescribed for the control of morning sickness during pregnancy,safe and effective sedative
O=C1CC[C@H](N2C(=O)c3ccccc3C2=O)C(=O)N1 [L-thalidomide],teratogenicity,[6]; in vivo,potent teratogen
